Test results: patent US4450269A, “Mono-5-substituted-3-chloro-4H-1,2,6-thiadiazin-4-one antifungal agents” (FMC Corporation, priority 1980, dated 1984)
Counter-ions that a name gives are not always drawn. Like-named read-outs stand apart in the source and are kept apart here.

What was measured:
Fusarium solani = assay: Mycelial growth test; format: cell-based; details: for inhibition at 5 ppm / inhibition at 20 ppm / inhibition at 40 ppm / inhibition at 10 ppm: Fusarium solani, 72 h; for inhibition at 5 ppm / inhibition at 20 ppm / Percent Fungus Growth Inhibition / inhibition at 10 ppm: PS, 72 hours; for inhibition at 5 ppm / inhibition at 20 ppm / inhibition at 10 ppm: read-out: Percent Fungus Growth Inhibition; for inhibition at 40 ppm: read-out: Percent Fungus Growth Inhibition, PS, 40 ppm, 72 hours
Phytophthora infestans = format: cell-based; details: PI, 48 hours

SMILES	inhibition at 5 ppm (Fusarium solani)	inhibition at 20 ppm (Fusarium solani; 20 ppm)	inhibition at 40 ppm (Fusarium solani)	Percent Fungus Growth Inhibition (Fusarium solani; 10 ppm)	Spore Germination Rating (Phytophthora infestans; 1.0 ppm)	Spore Germination Rating (Phytophthora infestans; 2.5 ppm)	Spore Germination Rating (Phytophthora infestans; 10 ppm)	Spore Germination Rating (Phytophthora infestans; 40 ppm)	Percent Fungus Growth Inhibition (Fusarium solani; 10 ppm, hydrochloride)	Percent Fungus Growth Inhibition (Fusarium solani; 20 ppm, hydrochloride)	Spore Germination Rating (Phytophthora infestans; 2.5 ppm, hydrochloride)	inhibition at 10 ppm (Fusarium solani; 10 ppm)
Nc1ccc(Oc2nsnc(Cl)c2=O)cc1 [Compound 26, 5-(4-aminophenoxy)-3-chloro-4H--1,2,6-thiadiazin-4-one]	13%	17%	42%	33%	4 (80-100)	4 (80-100)	4 (80-100)	2 (40-60)				
Nc1ccc(Oc2nsnc(Cl)c2=O)cc1 [Compound 27, 5-(4-aminophenoxy)-3-chloro-4H--1,2,6-thiadiazine-4-one hydrochloride]									8%	13%	3 (60-80)	
CNC(=O)Nc1ccc(Oc2nsnc(Cl)c2=O)cc1 [Compound 28, 3-chloro-5-[4-(3-methylureido)-phenoxy]-4H--1,2,6-thiadiazin-4-one]	0%	17%	13%		4 (80-100)	4 (80-100)	4 (80-100)	2 (40-60)				17%
O=C(Nc1ccccc1)Nc1ccc(Oc2nsnc(Cl)c2=O)cc1 [Compound 29, 3-chloro-5-[4-(3-phenylureido)-phenoxy]-4H--1,2,6-thiadiazin-4-one]	0%	0%	13%		4 (80-100)	4 (80-100)	4 (80-100)	3 (60-80)				0%
O=c1c(Cl)nsnc1Oc1c(Cl)cc(Cl)cc1Cl [Compound 30, 3-chloro-5-(2,4,6-trichlorophenoxy)-4H--1,2,6-thiadiazin-4-one]	52%	90%	100%		4 (80-100)	1 (10-40)	0 (0-10)	0 (0-10)				81%
O=c1c(Cl)nsnc1Oc1c(Cl)c(Cl)c(Cl)c(Cl)c1Cl [Compound 31, 3-chloro-5-(pentachlorophenoxy)-4H--1,2,6-thiadiazine-4-one]	42%	58%	58%		4 (80-100)	3 (60-80)	2 (40-60)	2 (40-60)				42%
O=c1c(Cl)nsnc1Oc1cccc2ccccc12 [Compound 32, 3-chloro-5(1-naphthoxy)-4H-1,2,6-thiadiazin-4-one]	100%	100%	100%		3 (60-80)	1 (10-40)	0 (0-10)	0 (0-10)				100%
O=c1c(Cl)nsnc1Oc1ccccc1Br [Compound 34, 3-chloro-5-(2-bromophenoxy)-4H-1,2,6,-thiadiazin-4-one]	13%	50%	100%		4 (80-100)	1 (10-40)	0 (0-10)	0 (0-10)				43%
O=c1c(Cl)nsnc1Oc1ccc(O)cc1 [Compound 35, 3-chloro-5-(4-hydroxyphenoxy)-4H-1,2,6-thiadiazin-4-one]	30%	60%	80%		4 (80-100)	0 (0-10)	0 (0-10)	0 (0-10)				35%
O=C(Nc1ccccc1)Oc1ccc(Oc2nsnc(Cl)c2=O)cc1 [Compound 37, 3-chloro-5-[4-(phenylaminocarbonyloxy)phenoxy]-4H-1,2,6,-thiadiazin-4-one]	26%	26%	42%		4 (80-100)	4 (80-100)	4 (80-100)	4 (80-100)				16%
CSc1ccc(Oc2nsnc(Cl)c2=O)cc1 [Compound 39, 3-chloro-5-[(4-methylthio)phenoxy]-4H-1,2,6,-thiadiazin-4-one]	42%	68%	42%		4 (80-100)	4 (80-100)	3 (60-80)	3 (60-80)				79%
C[S+]([O-])c1ccc(Oc2nsnc(Cl)c2=O)cc1 (stereo not drawn) [Compound 40, 3-chloro-5-[(4-methylsulfinyl)phenoxy]-4H-1,2,6,-thiadiazin-4-one]	5%	26%	53%		4 (80-100)	3 (60-80)	2 (40-60)	0 (0-10)				16%
CS(=O)(=O)c1ccc(Oc2nsnc(Cl)c2=O)cc1 [Compound 41, 3-chloro-5-[(4-methylsulfonyl)phenoxy]-4H--1,2,6-thiadiazin-4-one]	16%	42%	68%		4 (80-100)	2 (40-60)	0 (0-10)	0 (0-10)				16%
CC(=O)Nc1cccc(Oc2nsnc(Cl)c2=O)c1 [Compound 42, 3-[(3-N--acetylamino)-phenoxy]-5-chloro-4H--1,2,6-thiadiazin-4-one]	31%	13%	38%		4 (80-100)	4 (80-100)	3 (60-80)	0 (0-10)				19%
CC(=O)Nc1ccccc1Oc1nsnc(Cl)c1=O [Compound 43, 3-[(2-acetylamino)-phenoxy]-5-chloro-4H--1,2,6-thiadiazin-4-one]	0%	0%	0%		4 (80-100)	4 (80-100)	4 (80-100)	2 (40-60)				0%
O=c1c(Cl)nsnc1Oc1cccc(C(F)(F)F)c1 [Compound 44, 3-chloro-5-[(3-trifluoromethyl)phenoxy]-4H--1,2,6-thiadiazin-4-one]	100%	100%	100%		2 (40-60)	0 (0-10)	0 (0-10)	0 (0-10)				100%
O=C(O)Cc1ccccc1Oc1nsnc(Cl)c1=O [Compound 45, 3-(2-carboxymethylphenoxy)-5-chloro-4H--1,2,6-thiadiazin-4-one]	0%	6%	31%		4 (80-100)	4 (80-100)	0 (0-10)	0 (0-10)				0%
N#CCc1ccc(Oc2nsnc(Cl)c2=O)cc1 [Compound 46, 3-chloro-5-[(4-cyanomethyl)-phenoxy]4H--1,2,6-thiadiazin-4-one]	35%	90%	100%		4 (80-100)	1 (10-40)	1 (10-40)	0 (0-10)				70%
CC(=O)c1ccc(Oc2nsnc(Cl)c2=O)cc1 [Compound 47, 3-(4-acetylphenoxy)-5-chloro-4H--1,2,6-thiadiazin-4-one]	38%	100%	100%		0 (0-10)	0 (0-10)	0 (0-10)	0 (0-10)				50%
CC(=O)c1cccc(Oc2nsnc(Cl)c2=O)c1 [Compound 48, 3-(3-acetylphenoxy)-5-chloro-4H--1,2,6-thiadiazin-4-one]	38%	100%	100%		0 (0-10)	0 (0-10)	0 (0-10)	0 (0-10)				50%
CC(=O)c1ccccc1Oc1nsnc(Cl)c1=O [Compound 49, 3-(2-acetylphenoxy)-5-chloro-4H--1,2,6-thiadiazin-4-one]	0%	34%	67%		3 (60-80)	1 (10-40)	1 (10-40)	1 (10-40)				7%
O=C(O)c1ccc(Oc2nsnc(Cl)c2=O)cc1 [Compound 50, 3-(4-carboxyphenoxy)-5-chloro-4H--1,2,6-thiadiazin-4-one]	25%	63%	100%		4 (80-100)	2 (40-60)	0 (0-10)	0 (0-10)				38%
COc1ccc(Cl)c(Oc2nsnc(Cl)c2=O)c1 [Compound 51, 3-chloro-5-[(2-chloro-5-methoxy)phenoxy]-4H--1,2,6-thiadiazin-4-one]	60%	100%	100%		4 (80-100)	3 (60-80)	1 (10-40)	0 (0-10)				85%
O=c1c(Cl)nsnc1Oc1ccc([N+](=O)[O-])cc1Cl [Compound 53, 3-chloro-5-(2-chloro-4-nitrophenoxy)-4H--1,2,6-thiadiazin-4-one]	42%	100%	100%		1 (10-40)	0 (0-10)	0 (0-10)	0 (0-10)				68%
Cc1cc(Oc2nsnc(Cl)c2=O)ccc1Cl [Compound 54, 3-chloro-5-(4-chloro-3-methylphenoxy)-4H--1,2,6-thiadiazin-4-one]	27%	20%	20%		1 (10-40)	0 (0-10)	0 (0-10)	0 (0-10)				30%
